For data set [1], the system named is human LECs-CCCs freshly removed from cataract operation. Kind of data set: In situ treatment of LECs attached to capsulorhexis lens capsule (LECs-CCC). The note with it: 200 or 300 μm NEM in PBS. The data set is classed as cell-based. The method, then:
The in situ effects of a treatment solution comprising dihydrochlorothiazide (DHCT) (a cotransport interference agent from the group of the thiazide and related diuretics) and hyperosmotic NaCl on human LECs is examined. The treatment is tested on LECs that are still attached to a continuous curvilinear capsulorhexis lens capsule (LECs-CCC) which are freshly removed from a human cataract operation.
The LECs-CCCs are obtained from a cataract operation and immediately put in freshly prepared Eagle's Minimum Essential Medium (MEM) supplemented with 2 mM glutamine, 25 mmol/L Hepes (pH 7.4) without foetal cow serum (FCS) and is transferred to the laboratory for evaluation. Viable LECs are identified by staining the LECs-CCCs for five minutes with 0.2% Trypan Blue. The sheets containing more than 70% viable LECs are used to assess the efficacy of the treatment. […]
In the first step, a hyperosmotic solution of NaCl is prepared by making a stock solution of 2 M NaCl by adding 58.44 g NaCl (supplied by Sigma Chemical Co., U.S.) to 500 ml dH2O. The desired concentration of osmotic NaCl is prepared by diluting the 2M stock solution with dH2O. For example, to make a hyperosmotic solution of 170 mM NaCl, the 2M NaCl stock solution was diluted with dH2O at a ratio of […]. To make a hyperosmotic solution of 200 mM NaCl, the 2M NaCl stock solution is diluted with dH2O at a ratio of 1 to 9. Final osmolarities (mOsm/kg/H2O) are determined by a freezing point depression method using cryoscopic osmometry.
In the second step, DHCT stock solution is made by adding 25 mg DHCT to 1 ml dH2O. […]
The treatment is applied by exposing the LECs-CCCs for five minutes in a small petri dish containing the treatment solution. The treatment solution is removed after five minutes exposure by a syringe and then the fresh PBS is added in the petri dish to wash away the treatment solution. The LECs-CCCs are washed three times. The changes of the LECS are monitored under a microscope. Microscope photographs are taken at 0, 2 and 5 minutes and after wash.

Data set [2] deals with in vivo rabbit eyes. Kind of data set: In vivo prevention of PCO after cataract operation in rabbit eyes. As to conditions: 200 or 300 μm NEM in PBS or 170 mM monnitol. As to the method:
The experimental group includes sixteen rabbit eyes and the control group includes four rabbit eyes. A sham cataract operation is performed on the control animals. The therapy is introduced to the others.
The pupil of each rabbit eye is preoperatively dilated with topical G Phenylephrine 10% (Alcon Labs., Inc., China) and G Cyclopentolate 1% (Bausch & Lomb Pharm., Inc., USA) three times in one hour. The rabbits are anesthetized with ketamine hydrochloride (5 mg kg-1) and xylazine hydrochloride (2 mg kg-1) and placed on an operating table. A topical anesthetic (Dieaine hydrochloride 1%) is used every five minutes on two occasions. A wire lid speculum is placed to hold the eyelids open.
A 3.2 mm scleral tunnel incision into the eye is formed at the temporal limbus. The anterior chamber is maintained with viscoelastic substances and a 4-5 mm diameter continuous curvilinear capsularhexis (CCC) is made on the anterior surface of the lens to open its bag. The treatment solution is first introduced in the LECs by hydrodissection. This ensures that the treatment fluid immediately reaches under the entire anterior capsule/LECs. This process allows for (i) separation of the lens cortex from the capsule and lens epithelium, making removal of the lens cortex easier at a later stage of the operation and (ii) the LECs to be exposed to the treatment for enough time (more than five minutes in total time).
The crystalline lens is then removed using phacoemulsification (Universal II, Alcon Labs., Inc., China). The remaining cortex is aspirated thoroughly and removed as completely as possible to expose the LECs. The lens capsular bag is then partially filed with viscoelastic material in order to maintain its shape. The viscoelastic material should not cover the LECs when the treatment solution is applied.
The treatment is spread over the inner surface of the anterior capsular bag (where the LECs attach). The anterior capsular is continuously filled by using a syringe with a bent needle. Care is taken not to over flow the bag. After the treatment solution covered the capsule bag, it is left for five minutes and then removed using a syringe.
In a few cases, IOLs are inserted. […] At the same time, the incision is enlarged to 6.0 mm and a posterior ocular lens (IOLs) (poly-methyl methacrylate, PMMA) with a 6.5 mm optic is prepared and placed into the capsular bag.
The wound is closed with or without suture.
At the completion of the surgical procedure, each rabbit eye receives subconjunctival dexamethasone (0.25 ml) and gentamicin (0.25 ml). Postoperatively, atropine sulphate 1% ophthalmic solution and neomycin sulphate-polymyxin sulphate-dexamethasone ophthalmic ointment are administered twice daily for three weeks.
The animals are evaluated for three weeks and ten weeks. […] All rabbits are evaluated by slitlamp and scored for ocular responses at 1 day and at 1, 2 and 3 weeks. (See FIG. 17, Table 1.) Three and ten weeks after surgery, the animals are anesthetized using a 2 ml intramuscular injection of 11:1 mixture of ketamine hydrochloride and xylazine 20 mg/ml and then killed with a 2 ml intravenous injection of sodium pentobarbital.
The eye globes are enucleated (some of them fixed in neutral buffered formalin 10% solution for 24 hours) and are bisected coronally just anterior to the equator. Gross examination is performed to assess. PCO development. Photographs are taken from behind (Miyake-Apple posterior photographic technique) by using a digital camera fitted to an operating microscope (Leica/Wild MZ-8, Vashaw Scientific, Inc.).
The extent and severity of PCO is scored (see FIG. 17, Table 1) according to methods reported in the literature. The lens capsules are then fixed and evaluated under a microscope (Olumpus, Optical Co. Ltd.) and photographed with a digital camera.

Data set [3] deals with in vivo rabbit eyes. Described as above. As to conditions: IOLs coated with 300 μm NEM in PBS, dried overnight, inserted into the lens capsular bag.

For the compound `CCN1C(=O)C=CC1=O` [NEM, N-ethylmaleimide], the “LEC changes after five minutes of acute exposure” value in data set [1] is reported as “almost no changes are observed”. Further, the “LEC changes once put into PBS washing solution” value in data set [1] (after treatment) was “shrink and large gaps form between the cells. The shrunken cells then detach”. The “LECs on the lens capsule bag under microscope” value in the data set on in vivo rabbit eyes [2] was “no LECs on the lens capsule bag”. Moreover, in the data set with in vivo rabbit eyes [2] (3 and 10 weeks follow up), the “development of CPCO or PPCO” value is recorded as “no CPCO or PPCO develops”. Further, in the data set on in vivo rabbit eyes [2] (solution introduced directly), the intraocular inflammatory reaction result was “heavy intraocular inflammatory reaction in the early period and posterior synechiae”. Also, in the data set with in vivo rabbit eyes [3], the “anterior chamber (AC) reaction” value is recorded as “significantly reduces the AC reaction”.
